Among the test systems are OVCAR-8 ovarian; CCRF-CEM leukemia; K-562 leukemia; SN12C renal; UO-31 renal; EKVX NSCLC; HCT-116 colon; RPMI-8226 leukemia; SK-MEL-2 melanoma; NCI-H522 lung; U251 CNS; HCC-2998 colon; NCI-H460 lung.
Holding throughout (assay): growth of human tumour cells (NCI), 48 h

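Cells were grown in 96-well plates and exposed to each compound for 48 hours at five concentrations; endpoints were interpolated linearly between bracketing concentrations, or set to the highest concentration if not reached. TGI: total growth inhibition.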

As to `Cc1ccc(N=NC(=Nc2ccc(F)cc2)c2ccc(N(CCC#N)CCC#N)cc2)cc1`, the TGI in the test with OVCAR-8 ovarian, in the test with CCRF-CEM leukemia, with K-562 leukemia, with SN12C renal, in the test on UO-31 renal and in the test with EKVX NSCLC was over 100 µM throughout. The TGI is over 100 µM in the test on HCT-116 colon; over 100 µM with RPMI-8226 leukemia; over 100 µM with SK-MEL-2 melanoma; 63.7 µM in the test with NCI-H522 lung; over 100 µM in the test on U251 CNS; over 100 µM in the test with HCC-2998 colon. Moreover, the TGI in the test with NCI-H460 lung is over 100 µM.

Turning to `CC1=NN(c2ccccc2)C(=O)/C1=C1\SC(c2ccccc2)(c2ccccc2)c2ccccc21`, the TGI with OVCAR-8 ovarian, in the test on CCRF-CEM leukemia, with K-562 leukemia, with SN12C renal, in the test on UO-31 renal and in the test on EKVX NSCLC was over 100 µM in each case. Moreover, the TGI with HCT-116 colon, with RPMI-8226 leukemia, in the test with SK-MEL-2 melanoma, with NCI-H522 lung, in the test on U251 CNS and in the test on HCC-2998 colon was over 100 µM throughout. Besides, in the test on NCI-H460 lung, the TGI was over 100 µM.

As to `O=C1O/C(=C(\Br)c2ccc([N+](=O)[O-])cc2)c2ccccc21`, the TGI in the test with OVCAR-8 ovarian is over 100 µM; with CCRF-CEM leukemia, 62.7 µM; with K-562 leukemia, over 100 µM; with SN12C renal it was over 100 µM; with UO-31 renal, over 100 µM; in the test with EKVX NSCLC, over 100 µM. Further, the TGI in the test on HCT-116 colon is over 100 µM; in the test on RPMI-8226 leukemia, over 61.8 µM; in the test with SK-MEL-2 melanoma, over 100 µM; in the test on NCI-H522 lung, over 88.8 µM; with U251 CNS, over 100 µM; in the test with HCC-2998 colon, over 100 µM. For the same compound, the TGI in the test on NCI-H460 lung is over 100 µM.

For `O=C(Nc1ccc(Cl)cc1)c1cc(S(=O)(=O)Nc2nc3ncccc3[nH]2)c(SSc2cc(Cl)c(C(=O)Nc3ccc(Cl)cc3)cc2S(=O)(=O)Nc2nc3ncccc3[nH]2)cc1Cl`, the TGI in the test on OVCAR-8 ovarian, in the test on CCRF-CEM leukemia, with K-562 leukemia, with SN12C renal, in the test with UO-31 renal and in the test with EKVX NSCLC was over 100 µM each time. Also, the TGI with HCT-116 colon, in the test on RPMI-8226 leukemia, in the test on SK-MEL-2 melanoma, with NCI-H522 lung, in the test with U251 CNS and with HCC-2998 colon was over 100 µM in each case. In the test with NCI-H460 lung, this compound yielded a TGI of over 100 µM.

As for `N#C/C=C(/NC(=O)Nc1ccccc1)N1CCCC1`, the TGI with OVCAR-8 ovarian is over 51.8 µM; in the test with CCRF-CEM leukemia, over 100 µM; in the test with K-562 leukemia, over 100 µM; with SN12C renal, over 100 µM; in the test with UO-31 renal, over 100 µM; in the test on EKVX NSCLC, over 97 µM. In addition, the TGI is over 55.5 µM in the test on HCT-116 colon; over 100 µM in the test on RPMI-8226 leukemia; over 52.6 µM with SK-MEL-2 melanoma; over 60.8 µM with NCI-H522 lung; over 53.8 µM in the test on U251 CNS; over 53 µM in the test on HCC-2998 colon. In the test with NCI-H460 lung, this compound registered a TGI of over 55.4 µM.

For `CCCCCCc1cc2cc(C(=O)Nc3nc(C45CC6CC(CC(C6)C4)C5)cs3)c(=O)oc2cc1O`, the TGI in the test on OVCAR-8 ovarian was found to be 43.1 µM; in the test with CCRF-CEM leukemia, 50.5 µM; in the test on K-562 leukemia, 11 µM; with SN12C renal, 28.7 µM; with UO-31 renal, 67.6 µM; in the test on EKVX NSCLC, 51.4 µM. Besides, the TGI was 13.2 µM in the test on HCT-116 colon; 39 µM in the test on RPMI-8226 leukemia; 31.4 µM with SK-MEL-2 melanoma; 8.33 µM in the test on NCI-H522 lung; 28.6 µM with U251 CNS; 32.8 µM with HCC-2998 colon. Further, the TGI in the test with NCI-H460 lung stood at 50.3 µM.

Take `Cc1c2ccccc2c(=O)n2c(-c3ccccn3)cccc12`: the TGI with OVCAR-8 ovarian, in the test on CCRF-CEM leukemia, with K-562 leukemia, in the test on SN12C renal, in the test with UO-31 renal and in the test on EKVX NSCLC was over 100 µM in each case. Besides, the TGI in the test on HCT-116 colon, in the test on RPMI-8226 leukemia, with SK-MEL-2 melanoma, with NCI-H522 lung, in the test on U251 CNS and in the test with HCC-2998 colon was over 100 µM each time. The compound further displayed a TGI with NCI-H460 lung of over 100 µM.

Take `COc1cc(/C=C2\CC3C4CC=C5C[C@@H](O)CC[C@]5(C)C4CC[C@]3(C)\C2=N\O)cc(OC)c1OC` (some centres undefined): the TGI in the test on OVCAR-8 ovarian is over 100 µM; in the test with CCRF-CEM leukemia, over 100 µM; with K-562 leukemia it was over 100 µM; in the test with SN12C renal it was 54.1 µM; with UO-31 renal, 11.1 µM; in the test on EKVX NSCLC, over 100 µM. Besides, the TGI with HCT-116 colon is 21.2 µM; in the test with RPMI-8226 leukemia, 40 µM; with SK-MEL-2 melanoma it was 17.1 µM; in the test on NCI-H522 lung, over 100 µM; in the test with U251 CNS, 28.2 µM; with HCC-2998 colon it was 45 µM. For the same compound, the TGI in the test on NCI-H460 lung is 54.9 µM.

For the origin of these results see PubChem BioAssay (NCI).
